How the values were obtained:
[1] = logP determination by HPLC on a reversed-phase column (C18); assay type: physicochemical; settings: for logP^a): HPLC-MS method a); for log P: HPLC-MS
Tetranychus urticae = Tetranychus urticae - spray test, OP-resistant; assay type: in vivo; settings: bean leaf discs, after 6 days
Experimental: (§1) Solvent: 78.0 parts by weight of acetone and 1.5 parts by weight of dimethylformamide
(§2) Emulsifier: alkylaryl polyglycol ether
(§3) To produce an appropriate active ingredient formulation, 1 part by weight of active ingredient is dissolved using the specified parts by weight of solvent and made up with water containing an emulsifier concentration of 1000 ppm until the desired concentration is attained. To produce further test concentrations, the preparation is diluted with emulsifier-containing water.
Discs of bean leaves (Phaseolus vulgaris) infested by all stages of the greenhouse red spider mite (Tetranychus urticae) are sprayed with an active ingredient formulation of the desired concentration.
After 6 days, efficacy in % is determined. 100% means that all the spider mites have been killed; 0% means that none of the spider mites have been killed.

Musca domestica = Musca domestica test; assay type: in vivo; settings: adult houseflies, after 2 days
Experimental: (§4) Solvent: dimethyl sulphoxide
(§5) To produce an appropriate active ingredient formulation, 10 mg of active ingredient are mixed with 0.5 ml of dimethyl sulphoxide, and the concentrate is diluted with water to the desired concentration.
Vessels containing a sponge treated with sugar solution and the active ingredient formulation of the desired concentration are populated with 10 adult houseflies (Musca domestica).
After 2 days, the kill in % is determined. 100% means that all of the flies have been killed; 0% means that none of the flies have been killed.

Lucilia cuprina = Lucilia cuprina test; assay type: in vivo; settings: application rate 100 ppm; L1 larvae; after 2 days
Experimental: as §4, §5
About 20 L1 larvae of the Australian sheep blowfly (Lucilia cuprina) are transferred into a test vessel containing minced horsemeat and the active ingredient preparation of the desired concentration.
After 2 days, the kill in % is determined. 100% means that all the larvae have been killed; 0% means that none of the larvae have been killed.

Ctenocephalides felis = Ctenocephalides felis - oral test; assay type: in vivo; settings: application rate 100 ppm in citrated cattle blood; after 2 days
In short: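 Compound in DMSO diluted into citrated cattle blood, fed through a parafilm membrane to about 20 unfed adult cat fleas. Kill in % scored after 2 days (100% = all dead).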

Boophilus microplus = Boophilus microplus - injection test; assay type: in vivo; settings: application rate 20 μg/animal; injection into engorged adult female ticks; after 7 days
In short: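 Active ingredient in DMSO, 1 μl injected into the abdomen of 5 engorged adult female ticks, then held in a climate-controlled room. Efficacy scored after 7 days from laying of fertile eggs, with non-fertile-looking eggs kept about 42 days for larval hatch; 100% means no fertile eggs.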

Phaedon cochleariae = Phaedon cochleariae - spray test; assay type: in vivo; settings: larvae on Chinese cabbage leaf discs, after 7 days
In short: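 Chinese cabbage leaf discs sprayed with compound formulated in acetone/DMF and water containing 1000 ppm emulsifier; once dry, infested with mustard beetle larvae. Efficacy (% larvae killed) scored after 7 days.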

Spodoptera frugiperda = Spodoptera frugiperda - spray test; assay type: in vivo; settings: caterpillars on maize leaf discs, after 7 days
Experimental: as §1, §2, §3
Leaf discs of maize (Zea mays) are sprayed with an active ingredient formulation of the desired concentration and, after drying, populated with caterpillars of the armyworm (Spodoptera frugiperda).
After 7 days, efficacy in % is determined. 100% means that all the caterpillars have been killed; 0% means that no caterpillars have been killed.

[2] = reversed-phase column (C18), Table I-T3

Row | Compound | logP^a) [1] | logP^a) [1, 2] | efficacy (Tetranychus urticae; application rate 100 g/ha) | efficacy (kill) (Musca domestica; application rate 100 ppm) | efficacy (kill) (Lucilia cuprina) | efficacy (kill) (Ctenocephalides felis) | efficacy (laying of fertile eggs) (Boophilus microplus) | efficacy (Phaedon cochleariae; application rate 100 g/ha) | efficacy (Spodoptera frugiperda; application rate 100 g/ha) | efficacy (Tetranychus urticae; application rate 500 g/ha) | efficacy (Phaedon cochleariae; application rate 500 g/ha) | efficacy (Spodoptera frugiperda; application rate 500 g/ha) | efficacy (kill) (Musca domestica; application rate 4 ppm) | logP^a) ([1]; reversed-phase column (C18)) | log P [1, 2]
1 | Cc1cc(C(F)(C(F)(F)F)C(F)(F)F)cc(C)c1-n1cc(-c2ccc(Cl)c(C(=O)NCC(F)(F)F)c2)cn1 [I-T3-2] | 4.7 | 4.7 | 100% | 100% | 100% | 100% | 100% | 100% | 100% |  |  |  |  |  | 
2 | Cc1cc(C(F)(C(F)(F)F)C(F)(F)F)cc(C)c1-n1cc(-c2ccc(Cl)c(C(=O)NC3CSC3)c2)cn1 [I-T3-4] | 4.7 | 4.7 | 100% | 100% | 100% | 100% | 100% | 100% | 100% |  |  |  |  |  | 
3 | Cc1cc(C(F)(C(F)(F)F)C(F)(F)F)cc(C)c1-n1cc(-c2ccc(Cl)c(C(=O)NC3(C(F)(F)F)CC3)c2)cn1 [I-T3-5] | 4.6 | 4.6 |  | 100% | 100% | 100% | 100% | 100% |  |  |  |  |  |  | 
4 | N#CC1(NC(=O)c2cc(-c3cnn(-c4ccc(C(F)(C(F)(F)F)C(F)(F)F)cc4OC(F)(F)F)c3)ccc2Cl)CC1 [I-T3-34] | 4.6 | 4.6 |  | 100% | 100% | 100% | 100% |  |  | 100% | 100% | 100% |  |  | 
5 | O=C(NC1CC1)c1cc(-c2cnn(-c3ccc(C(F)(C(F)(F)F)C(F)(F)F)cc3OC(F)(F)F)c2)ccc1Cl [I-T3-35] | 4.7 | 4.7 |  |  | 100% | 100% | 100% |  | 83% |  | 100% |  | 80% |  | 
6 | O=C(NCC(F)(F)F)c1cc(-c2cnn(-c3c(Cl)cc(C(F)(C(F)(F)F)C(F)(F)F)cc3C(F)(F)F)c2)ccc1Cl [I-T3-58] | 4.7 | 4.7 | 100% | 100% | 100% | 100% | 100% | 100% | 100% |  |  |  |  |  | 
7 | N#CC1(NC(=O)c2cc(-c3cnn(-c4c(F)cc(C(F)(C(F)(F)F)C(F)(F)F)cc4F)c3)ccc2Cl)CC1 [I-T3-62] | 3.9 | 3.9 | 100% | 100% | 100% | 100% | 100% | 100% | 100% |  |  |  |  |  | 
8 | Cc1cc(C(F)(C(F)(F)F)C(F)(F)F)cc(C)c1-n1cc(-c2ccc(Cl)c(C(=O)NC3(C#N)CC3)c2F)cn1 [I-T3-65] | 4.4 | 4.3 |  | 100% | 100% | 100% | 100% |  |  | 90% | 100% | 100% |  |  | 
9 | CCc1cc(C(F)(C(F)(F)F)C(F)(F)F)cc(C)c1-n1cc(-c2ccc(Cl)c(C(=O)NC3(C#N)CC3)c2F)cn1 [I-T3-66] | 4.6 | 4.6 |  | 80% | 100% | 100% | 100% |  |  |  | 100% | 100% |  |  | 
10 | CCc1cc(C(F)(C(F)(F)F)C(F)(F)F)cc(C)c1-n1cc(-c2ccc(Cl)c(C(=O)NC3CC3)c2F)cn1 [I-T3-68] | 4.6 | 4.8 |  | 80% | 100% | 100% | 100% |  |  |  | 100% | 100% |  |  | 
11 | O=C(NC1CC1)c1c(Cl)ccc(-c2cnn(-c3c(Cl)cc(C(F)(C(F)(F)F)C(F)(F)F)cc3Cl)c2)c1F [I-T3-73] | 4.5 | 4.5 | 100% | 100% | 100% | 100% | 100% |  |  |  | 100% | 100% |  |  | 
12 | CCc1cc(C(F)(C(F)(F)F)C(F)(F)F)ccc1-n1cc(-c2cncc(C(=O)NC3CC3)c2)cn1 [I-T3-79] | 3.3 | 3.3 |  | 80% | 80% | 95% | 100% |  |  |  | 100% | 100% |  |  | 
13 | N#CC1(NC(=O)c2cc(-c3cnn(-c4ccc(OC(F)(F)F)cc4Cl)c3)ccc2Cl)CC1 [I-T3-89] | 3.5 | 3.5 |  | 100% | 100% | 100% | 100% |  |  | 90% | 100% | 100% |  |  | 
14 | Cc1cc(C(F)(C(F)(F)F)C(F)(F)F)cc(C)c1-n1cc(-c2cnc(C3CC3)c(C(=O)NC3(C#N)CC3)c2)cn1 [I-T3-139] |  |  | 100% | 90% | 100% | 100% | 100% | 100% | 100% |  |  |  |  | 4.1 | 4.1
15 | COc1ncc(-c2cnn(-c3c(C)cc(C(F)(C(F)(F)F)C(F)(F)F)cc3C)c2)cc1C(=O)N(C)C1CC1 [I-T3-144] |  |  |  | 100% | 100% | 90% | 100% | 100% |  |  |  |  |  | 4.4 | 4.4
16 | N#CC1(NC(=O)c2cc(-c3cnn(-c4ncc(C(F)(F)F)cc4C(F)(F)F)c3)ccc2Cl)CC1 [I-T3-149] |  |  |  | 100% | 100% | 100% | 100% | 100% |  |  |  |  |  | 3.5 | 3.5
17 | O=C(NC1CC1)c1cc(-c2cnn(-c3ncc(C(F)(F)F)cc3C(F)(F)F)c2)ccc1Cl [I-T3-150] |  |  |  | 100% | 100% | 100% | 100% |  |  |  |  |  |  | 3.6 | 3.6
18 | N#CC1(NC(=O)c2cc(-c3cnn(-c4ncc(C(F)(C(F)(F)F)C(F)(F)F)cc4Cl)c3)ccc2Cl)CC1 [I-T3-151] |  |  | 90% | 100% | 100% | 100% | 100% | 100% | 100% |  |  |  |  | 4.0 | 4.0

Reference: patent US10150737B2, “Compounds for controlling arthropods” (priority 2013, dated 2018)
